Usually IC50 stands for the concentration needed to halve the response being measured. Higher therefore signals weaker potency.

This note sets out measurements from patent US20230234942A1, “COMPOUNDS FOR TREATING HUNTINGTON'S DISEASE” (PTC Therapeutics, Inc., priority 2020, published 2023).

The first test relates to Endogenous Huntingtin Protein. As to the kind of experiment: Endogenous Huntingtin Protein Assay (ELISA-based MSD electrochemiluminescence). Type of test: cell-based. The settings on record: Table 2; MSD plates coated with MW1 (expanded polyglutamine) or MAB2166 capture antibody; "inactive" = result above the detection limit of the assay. As for the experimental part: Compounds of Formula (I) were tested using the Meso Scale Discovery (MSD) Assay provided in International Application No. PCT/US2016/066042, filed on Dec. 11, 2016 and claiming priority to U.S. Provisional Application 62/265,652 filed on Dec. 10, 2015, the entire contents of which are incorporated herein by reference.
The Endogenous Huntingtin Protein assay used in Biological Example 1 was developed using the ELISA-based MSD electrochemiluminescence assay platform.
Meso Scale Discovery (MSD) 96-well or 384-well plates were coated overnight at 4° C. with MW1 (expanded polyglutamine) or MAB2166 monoclonal antibody (for capture) at a concentration of 1 μg/mL in PBS (30 μL per well). Plates were then washed three times with 300 μL wash buffer (0.05% Tween-20 in PBS) and blocked (100 μL blocking buffer; 5% BSA in PBS) for 4-5 hours at room temperature with rotational shaking and then washed three times with wash buffer.
Samples (25 μL) were transferred to the antibody-coated MSD plate and incubated overnight at 4° C. After removal of the lysates, the plate was washed three times with wash buffer, and 25 μL of #56565 (Cell signaling; rabbit monoclonal) secondary antibody (diluted to 0.25 μg/mL in 0.05% Tween-20 in blocking buffer) was added to each well and incubated with shaking for 1 Hour at room temperature. Following incubation with the secondary antibody, the wells were rinsed with wash buffer after which 25 μL of goat anti-rabbit SULFO TAG secondary detection antibody (required aspect of the MSD system) (diluted to 0.25 μg/mL in 0.05% Tween-20 in blocking buffer) was added to each well and incubated with shaking for 1 hour at room temperature. After rinsing three times with wash buffer, 150 μL of read buffer T with surfactant (MSD) were added to each empty well, and the plate was imaged on a SI 6000 imager (MSD) according to manufacturers' instructions provided for 96- or 384-well plates.
Compound `CC[C@H]1CN(c2ncc(-c3ccc(-c4c[nH]nc4F)cc3O)nn2)CCN1` [Cpd 123, 2-{3-[(3S)-3-ethylpiperazin-1-yl]-1,2,4-triazin-6-yl}-5-(3-fluoro-1H-pyrazol-4-yl)phenol] showed an IC50 of 0.0112 µM. Consider `CC(C)[C@H]1CN(c2ncc(-c3ccc(-c4ccc5nccn5c4)cc3O)nn2)CCN1` [Cpd 114, 5-(imidazo[1,2-a]pyridin-6-yl)-2-{3-[(3S)-3-(propan-2-yl)piperazin-1-yl]-1,2,4-triazin-6-yl}phenol], for which the half-maximal inhibitory concentration (IC50) came out at 0.0544 µM. Against the preceding compound, the IC50 is about 4.9-fold higher.

Take `Oc1cc(-c2cn[nH]c2)ccc1-c1cnc(N2CCNC(C3CCC3)C2)nn1` (stereo not drawn) [Cpd 30, 2-[3-(3-cyclobutylpiperazin-1-yl)-1,2,4-triazin-6-yl]-5-(1H-pyrazol-4-yl)phenol]: the IC50 worked out at 0.0333 µM. This IC50 is about 1.6-fold lower than that of the compound before. Regarding `CC(C)[C@H]1CN(c2ncc(-c3c(O)cc(-c4cn[nH]c4F)cc3F)nn2)CCN1` [Cpd 283, 3-fluoro-5-(5-fluoro-1H-pyrazol-4-yl)-2-{3-[(3S)-3-(propan-2-yl)piperazin-1-yl]-1,2,4-triazin-6-yl}phenol], the IC50 came out at 0.0073 µM. `CCC(C)C1CN(c2ncc(-c3ccc(-c4cn[nH]c4)cc3O)nn2)CCN1` (stereo not drawn) [Cpd 33, 2-{3-[3-(butan-2-yl)piperazin-1-yl]-1,2,4-triazin-6-yl}-5-(1H-pyrazol-4-yl)phenol]: the 50% inhibitory concentration (IC50) came to 0.0414 µM. As to `COc1cc(-c2ccc(-c3cnc(N4C[C@@H](C)N[C@@H](C5CC5)C4)nn3)c(O)c2)ncn1` [Cpd 235, 2-{3-[(3S,5R)-3-cyclopropyl-5-methylpiperazin-1-yl]-1,2,4-triazin-6-yl}-5-(6-methoxypyrimidin-4-yl)phenol], the half-maximal inhibitory concentration (IC50) is 0.0081 µM. As to `Cc1ncc2cc(-c3ccc(-c4cnc(N5CCN[C@@H](C6CC6)C5)nn4)c(O)c3)ccn12` [Cpd 195, 2-{3-[(3S)-3-cyclopropylpiperazin-1-yl]-1,2,4-triazin-6-yl}-5-(3-methylimidazo[1,5-a]pyridin-7-yl)phenol], the IC50 worked out at 0.0091 µM.

As to `Cc1cc(-c2ccc(-c3cnc(N4CCN[C@@H](C(C)C)C4)nn3)c(O)c2)cc2cn(C)nc12` [Cpd 140, 5-(2,7-dimethyl-2H-indazol-5-yl)-2-{3-[(3S)-3-(propan-2-yl)piperazin-1-yl]-1,2,4-triazin-6-yl}phenol], the IC50 amounted to 0.0058 µM. The same measure, in the same setting: as for `COc1csc(-c2ccc(-c3cnc(N4CCN[C@@H](C(C)C)C4)nn3)c(O)c2)n1` [Cpd 200, 5-(4-methoxy-1,3-thiazol-2-yl)-2-{3-[(3S)-3-(propan-2-yl)piperazin-1-yl]-1,2,4-triazin-6-yl}phenol], the figure is 0.0301 µM; as for `CC(C)[C@H]1CN(c2ncc(-c3ccc(-c4cn5ncnc5cn4)cc3O)nn2)CCN1` [Cpd 128, 2-{3-[(3S)-3-(propan-2-yl)piperazin-1-yl]-1,2,4-triazin-6-yl}-5-([1,2,4]triazolo[1,5-a]pyrazin-6-yl)phenol], 0.0267 µM; as for `Cc1nc2nc(-c3ccc(-c4cnc(N5CCN[C@@H](C6CC6)C5)nn4)c(O)c3)nc(C)c2[nH]1` [Cpd 84, 2-{3-[(3S)-3-cyclopropylpiperazin-1-yl]-1,2,4-triazin-6-yl]-5-(6,8-dimethyl-7H-purin-2-yl)phenol], 0.0059 µM. In turn, `COc1cc(-c2ccc(-c3cnc(N4C[C@@H](C5CC5)N[C@@H](C)C4)nn3)c(O)c2)ncn1` [Cpd 226, 2-{3-[(3R,5S)-3-cyclopropyl-5-methylpiperazin-1-yl]-1,2,4-triazin-6-yl}-5-(6-methoxypyrimidin-4-yl)phenol] displayed an IC50 of 0.13 µM. `CC(C)[C@H]1CN(c2ncc(-c3ccc(-c4ccc5nn(C)cc5c4)cc3O)nn2)CCN1` [Cpd 88, 5-(2-methyl-2H-indazol-5-yl)-2-{3-[(3S)-3-(propan-2-yl)piperazin-1-yl]-1,2,4-triazin-6-yl}phenol] had an IC50 of 0.0065 µM. As for `[2H]C([2H])([2H])n1cc(-c2ccc(-c3cnc(N4CCN[C@@H](C5CC5)C4)nn3)c(O)c2)cn1` [Cpd 9, 2-{3-[(3S)-3-cyclopropylpiperazin-1-yl]-1,2,4-triazin-6-yl}-5-[1-(^2H3)methyl-1H-pyrazol-4-yl]phenol], the half-inhibitory concentration (IC50) was 0.0095 µM. Compound `[2H]C([2H])([2H])Oc1cc(-c2ccc(-c3cnc(N4CCN(C)C(C(C)(C)O)C4)nn3)c(O)c2)ncn1` (stereo not drawn) [Cpd 26, 2-{3-[3-(2-hydroxypropan-2-yl)-4-methylpiperazin-1-yl]-1,2,4-triazin-6-yl}-5-{6-[(^2H3)methyloxy]pyrimidin-4-yl}phenol] came in with a concentration for half-maximal inhibition (IC50) of 0.0249 µM. Still for that read-out and setting: as for `Cc1nc2ncc(-c3ccc(-c4cnc(N5C[C@@H](C)N[C@@H](C)C5)nn4)c(O)c3)cn2n1` [Cpd 112, 2-{3-[(3R,5S)-3,5-dimethylpiperazin-1-yl]-1,2,4-triazin-6-yl}-5-(2-methyl[1,2,4]triazolo[1,5-a]pyrimidin-6-yl)phenol], the figure is 0.034 µM; as for `[2H]C([2H])([2H])n1cc(-c2ccc(-c3cnc(N4C[C@@H](C)N[C@@H](C)C4)nn3)c(O)c2)cn1` [Cpd 49, 2-{3-[(3R,5S)-3,5-dimethylpiperazin-1-yl]-1,2,4-triazin-6-yl}-5-[1-(^2H3)methyl-1H-pyrazol-4-yl]phenol], 0.256 µM; as for `CC1(C2CN(c3ncc(-c4ccc(-c5cn[nH]c5)cc4O)nn3)CCN2)CC1` (stereo not drawn) [Cpd 134, 2-{3-[3-(1-methylcyclopropyl)piperazin-1-yl]-1,2,4-triazin-6-yl}-5-(1H-pyrazol-4-yl)phenol], 0.0149 µM. Turning to `COc1cc(-c2cc(O)c(-c3cnc(N4CCN[C@@H](C(C)C)C4)nn3)c(F)c2)ncn1` [Cpd 28, 3-fluoro-5-(6-methoxypyrimidin-4-yl)-2-{3-[(3S)-3-(propan-2-yl)piperazin-1-yl]-1,2,4-triazin-6-yl}phenol], the IC50 amounted to 0.0262 µM. Turning to `COc1nnc(-c2ccc(-c3cnc(N4CCN[C@@H](C(C)C)C4)nn3)c(O)c2)s1` [Cpd 204, 5-(5-methoxy-1,3,4-thiadiazol-2-yl)-2-{3-[(3S)-3-(propan-2-yl)piperazin-1-yl]-1,2,4-triazin-6-yl}phenol], the concentration for half-maximal inhibition (IC50) stood at 0.163 µM.

Compound `CC(C)[C@H]1CN(c2ncc(-c3ccc(-c4ncc(Cl)s4)cc3O)nn2)CCN1` [Cpd 189, 5-(5-chloro-1,3-thiazol-2-yl)-2-{3-[(3S)-3-(propan-2-yl)piperazin-1-yl]-1,2,4-triazin-6-yl}phenol] displayed a concentration for half-maximal inhibition (IC50) of 0.461 µM. `Oc1cc(-c2cc(N3CCC3)ncn2)ccc1-c1cnc(N2CCNC(C3CC3)C2)nn1` (racemic) [Cpd 210, 5-[6-(azetidin-1-yl)pyrimidin-4-yl]-2-{3-[(3RS)-3-cyclopropylpiperazin-1-yl]-1,2,4-triazin-6-yl}phenol] returned a concentration for half-maximal inhibition (IC50) of 0.975 µM. This IC50 lies about 2.1-fold higher than the previous one.

In turn, `Oc1cc(-c2cn[nH]c2)ccc1-c1cnc(N2CCN3C[C@H](O)C[C@H]3C2)nn1` [Cpd 59, (7R,8aS)-2-{6-[2-hydroxy-4-(1H-pyrazol-4-yl)phenyl]-1,2,4-triazin-3-yl}octahydropyrrolo[1,2-a]pyrazin-7-ol] yielded an IC50 of 0.876 µM. This IC50 and that of the compound before are within 1.5-fold of each other.

`Cc1cc2nc(-c3ccc(-c4cnc(N5C[C@@H](C)N[C@@H](C)C5)nn4)c(O)c3)sc2c(C)n1` [Cpd 116, 2-{3-[(3R,5S)-3,5-dimethylpiperazin-1-yl]-1,2,4-triazin-6-yl}-5-(4,6-dimethyl[1,3]thiazolo[5,4-c]pyridin-2-yl)phenol] had an IC50 of 0.678 µM.

`CC(C)[C@H]1CN(c2ncc(-c3ccc(-c4cnsc4)cc3O)nn2)CCN1` [Cpd 250, 2-{3-[(3S)-3-(propan-2-yl)piperazin-1-yl]-1,2,4-triazin-6-yl]-5-(1,2-thiazol-4-yl)phenol] registered an IC50 of 0.14 µM. As for `Oc1cc(-c2c[nH]nc2F)ccc1-c1cnc(N2CCNC3(CC3)C2)nn1` [Cpd 57, 2-[3-(4,7-diazaspiro[2.5]octan-7-yl)-1,2,4-triazin-6-yl]-5-(3-fluoro-1H-pyrazol-4-yl)phenol], the IC50 was found to be 0.668 µM. On to `Oc1cc(-n2nccn2)ccc1-c1cnc(N2CCN3CCC[C@H]3C2)nn1` [Cpd 153, 2-{3-[(8aS)-hexahydropyrrolo[1,2-a]pyrazin-2(1H)-yl]-1,2,4-triazin-6-yl}-5-(2H-1,2,3-triazol-2-yl)phenol], for which half-maximal inhibition (IC50) was put at 0.438 µM. On the same count and under the same terms, under `Cc1cnn(-c2ccc(-c3cnc(N4CCN[C@@H](C(C)C)C4)nn3)c(O)c2)n1` [Cpd 184, 5-(4-methyl-2H-1,2,3-triazol-2-yl)-2-{3-[(3S)-3-(propan-2-yl)piperazin-1-yl]-1,2,4-triazin-6-yl}phenol] stands 0.049 µM; under `Cc1nc2c(C)nc(-c3ccc(-c4cnc(N5C[C@@H](C)N[C@@H](C)C5)nn4)c(O)c3)cn2n1` [Cpd 101, 2-{3-[(3R,5S)-3,5-dimethylpiperazin-1-yl]-1,2,4-triazin-6-yl}-5-(2,8-dimethyl[1,2,4]triazolo[1,5-a]pyrazin-6-yl)phenol], 0.013 µM.

The test is the same for the next values; noted with them: Table 3; selected compounds from WO/2019/191229 A1, same MSD assay.
As for `CC1CN(c2ncc(-c3ccc(-c4cn[nH]c4)cc3O)nn2)CC(C)N1` (stereo not drawn) [WO/2019/191229 A1 Cpd 262, reference compound], it took 0.0728 µM to reach half-maximal inhibition (IC50).
